Columns and labels:
[1] = molecular target: T1, Mitogen-activated protein kinase 14 (Homo sapiens, UniProt Q16539); assay: Inhibition of human p38alpha using MBP as substrate by [gamma-33P]-ATP assay
[2] = Stability in human plasma assessed as remaining compound at 10 uM incubated for 30 mins by LC-MS analysis; format: ADME, cell-free; conditions: read-out: Stability
[3] = Stability in human plasma assessed as remaining compound at 10 uM incubated for 120 mins by LC-MS analysis; format: ADME, cell-free; conditions: read-out: Stability
[4] = Stability in rat plasma assessed as remaining compound at 10 uM incubated for 30 mins by LC-MS analysis; format: ADME, cell-free; conditions: read-out: Stability
[5] = Stability in rat plasma assessed as remaining compound at 10 uM incubated for 120 mins by LC-MS analysis; format: ADME, cell-free; conditions: read-out: Stability
[6] = molecular target: T1, Mitogen-activated protein kinase 14; assay: Inhibition of p38alpha (unknown origin)
[7] = molecular target: T1, Mitogen-activated protein kinase 14; assay: Inhibition of recombinant Nanoluc-tagged p38alpha (unknown origin) expressed in HEK293 cells incubated for 2 to 3 mins by NanoBRET assay; format: cell-based
[8] = molecular target: PI3-kinase p110-alpha/p85-alpha (Homo sapiens) (UniProt P27986+P42336); assay: Inhibition of human PI3K (p110alpha/p85alpha) at 10 uM using PI as substrate by ADP-Glo Assay relative to control; format: protein-complex assay
[9] = molecular target: Platelet-derived growth factor receptor beta (Homo sapiens) (UniProt P09619); assay: Inhibition of human PDGFRbeta at 10 uM using poly[Glu:Tyr] (4:1) as substrate by [gamma-33P]-ATP assay relative to control
[10] = molecular target: Mitogen-activated protein kinase 8 (Homo sapiens) (UniProt P45983); assay: Inhibition of human JNK1 at 10 uM using ATF2 as substrate by [gamma-33P]-ATP assay relative to control
[11] = molecular target: Receptor tyrosine-protein kinase erbB-2 (Homo sapiens) (UniProt P04626); assay: Inhibition of human ERBB2 at 10 uM using poly[Glu:Tyr] (4:1) as substrate by [gamma-33P]-ATP assay relative to control
[12] = molecular target: Receptor tyrosine-protein kinase erbB-4 (Homo sapiens) (UniProt Q15303); assay: Inhibition of human ERBB4 at 10 uM using poly[Glu:Tyr] (4:1) as substrate by [gamma-33P]-ATP assay relative to control
[13] = molecular target: Mitogen-activated protein kinase 1 (Homo sapiens) (UniProt P28482); assay: Inhibition of human ERK2 at 10 uM using MBP as substrate by [gamma-33P]-ATP assay relative to control
[14] = molecular target: Fibroblast growth factor receptor 1 (Homo sapiens) (UniProt P11362); assay: Inhibition of human FGFR1 at 10 uM using KKKSPGEYVNIEFG as substrate by [gamma-33P]-ATP assay relative to control
Sequence of Fibroblast growth factor receptor 1 (Homo sapiens) (P11362 22-822 limits assumed): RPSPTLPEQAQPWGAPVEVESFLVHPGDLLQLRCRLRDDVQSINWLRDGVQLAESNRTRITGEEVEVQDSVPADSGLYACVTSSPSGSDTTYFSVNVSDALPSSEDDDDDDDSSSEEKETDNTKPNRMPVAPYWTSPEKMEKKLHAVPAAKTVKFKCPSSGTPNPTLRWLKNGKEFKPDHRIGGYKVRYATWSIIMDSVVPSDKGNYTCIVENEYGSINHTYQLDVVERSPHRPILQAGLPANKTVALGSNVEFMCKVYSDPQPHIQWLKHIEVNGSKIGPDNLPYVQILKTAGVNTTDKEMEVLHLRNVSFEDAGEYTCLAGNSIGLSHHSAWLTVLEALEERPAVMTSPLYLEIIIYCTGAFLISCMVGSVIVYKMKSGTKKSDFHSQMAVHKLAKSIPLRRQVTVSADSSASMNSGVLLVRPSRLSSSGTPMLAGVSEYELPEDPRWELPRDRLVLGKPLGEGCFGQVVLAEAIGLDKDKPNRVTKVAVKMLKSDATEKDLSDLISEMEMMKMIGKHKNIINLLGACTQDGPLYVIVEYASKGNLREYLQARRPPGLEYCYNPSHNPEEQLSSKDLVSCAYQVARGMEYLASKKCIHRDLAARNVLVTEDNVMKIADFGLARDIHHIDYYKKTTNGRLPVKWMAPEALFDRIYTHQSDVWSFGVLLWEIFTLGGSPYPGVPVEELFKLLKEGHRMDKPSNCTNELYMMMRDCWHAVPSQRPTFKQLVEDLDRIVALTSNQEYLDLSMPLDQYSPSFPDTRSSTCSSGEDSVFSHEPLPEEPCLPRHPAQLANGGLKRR

[15] = molecular target: Receptor-type tyrosine-protein kinase FLT3 (Homo sapiens) (UniProt P36888); assay: Inhibition of human FLT3 at 10 uM using EAIYAAPFAKKK as substrate by [gamma-33P]-ATP assay relative to control
[16] = molecular target: Macrophage colony-stimulating factor 1 receptor (Homo sapiens) (UniProt P07333); assay: Inhibition of human FMS at 10 uM using poly[Glu:Tyr] (4:1) as substrate by [gamma-33P]-ATP assay relative to control
[17] = molecular target: Tyrosine-protein kinase JAK1 (Homo sapiens) (UniProt P23458); assay: Inhibition of human JAK1 at 10 uM using poly[Glu:Tyr] (4:1) as substrate by [gamma-33P]-ATP assay relative to control
[18] = molecular target: Tyrosine-protein kinase JAK2 (Homo sapiens) (UniProt O60674); assay: Inhibition of human JAK2 at 10 uM using poly[Glu:Tyr] (4:1) as substrate by [gamma-33P]-ATP assay relative to control
[19] = molecular target: T1, Mitogen-activated protein kinase 14; assay: Inhibition of human p38alpha at 10 uM using MBP as substrate by [gamma-33P]-ATP assay relative to control
[20] = molecular target: Vascular endothelial growth factor receptor 2 (Homo sapiens) (UniProt P35968); assay: Inhibition of human KDR at 10 uM using poly[Glu:Tyr] (4:1) as substrate by [gamma-33P]-ATP assay relative to control
[21] = molecular target: Dual specificity mitogen-activated protein kinase kinase 1 (Homo sapiens) (UniProt Q02750); assay: Inhibition of human MEK1 at 10 uM using ERK2 as substrate by [gamma-33P]-ATP assay relative to control
Sequence of Dual specificity mitogen-activated protein kinase kinase 1 (Homo sapiens) (Q02750 whole entry): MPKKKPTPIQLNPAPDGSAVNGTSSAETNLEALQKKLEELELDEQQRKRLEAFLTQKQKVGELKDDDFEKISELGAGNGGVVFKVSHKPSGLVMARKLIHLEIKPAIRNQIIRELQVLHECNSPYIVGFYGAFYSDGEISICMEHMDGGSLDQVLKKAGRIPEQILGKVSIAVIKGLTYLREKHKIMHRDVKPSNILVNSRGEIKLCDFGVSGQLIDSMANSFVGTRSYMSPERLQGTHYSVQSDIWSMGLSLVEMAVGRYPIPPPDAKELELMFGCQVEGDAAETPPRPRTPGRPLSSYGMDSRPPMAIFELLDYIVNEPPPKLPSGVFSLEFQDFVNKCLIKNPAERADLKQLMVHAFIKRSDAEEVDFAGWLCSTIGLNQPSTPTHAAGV

[22] = molecular target: Serine/threonine-protein kinase B-raf (Homo sapiens) (UniProt P15056); assay: Inhibition of human BRAF at 10 uM using MEK1 (K97R) as substrate by [gamma-33P]-ATP assay relative to control
Sequence of Serine/threonine-protein kinase B-raf (Homo sapiens) (P15056 whole entry): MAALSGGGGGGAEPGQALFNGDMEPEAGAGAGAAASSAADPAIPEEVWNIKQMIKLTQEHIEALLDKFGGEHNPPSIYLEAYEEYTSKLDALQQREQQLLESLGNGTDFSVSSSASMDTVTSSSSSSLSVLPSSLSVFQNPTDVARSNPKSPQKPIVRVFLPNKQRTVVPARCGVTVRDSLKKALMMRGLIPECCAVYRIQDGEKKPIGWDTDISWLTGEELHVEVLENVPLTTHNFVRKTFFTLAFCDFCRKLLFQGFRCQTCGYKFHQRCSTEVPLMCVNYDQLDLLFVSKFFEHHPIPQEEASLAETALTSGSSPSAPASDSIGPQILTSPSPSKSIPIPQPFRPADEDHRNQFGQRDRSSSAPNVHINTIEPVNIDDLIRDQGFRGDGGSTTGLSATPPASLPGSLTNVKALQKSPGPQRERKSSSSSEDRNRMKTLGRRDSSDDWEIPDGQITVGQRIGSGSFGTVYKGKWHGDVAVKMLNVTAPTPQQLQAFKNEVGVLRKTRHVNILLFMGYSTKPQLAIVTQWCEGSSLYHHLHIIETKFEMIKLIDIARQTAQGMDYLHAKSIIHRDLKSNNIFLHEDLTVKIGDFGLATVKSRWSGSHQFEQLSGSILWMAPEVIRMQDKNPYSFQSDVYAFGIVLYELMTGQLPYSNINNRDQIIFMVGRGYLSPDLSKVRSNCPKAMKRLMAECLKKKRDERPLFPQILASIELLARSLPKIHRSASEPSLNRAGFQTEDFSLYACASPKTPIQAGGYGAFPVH

[23] = tested on: Serine/threonine-protein kinase B-raf (Homo sapiens), P15056 [V600E]; assay: Inhibition of human BRAF V600E mutant at 10 uM using MEK1 (K97R) as substrate by [gamma-33P]-ATP assay relative to control
Sequence of Serine/threonine-protein kinase B-raf (Homo sapiens), P15056 [V600E] (P15056 whole entry V600E): as the sequence (P15056 whole entry) above, with V600E counted along it

[24] = molecular target: Mast/stem cell growth factor receptor Kit (Homo sapiens) (UniProt P10721); assay: Inhibition of human c-KIT at 10 uM using poly[Glu:Tyr] (4:1) as substrate by [gamma-33P]-ATP assay relative to control
[25] = molecular target: Hepatocyte growth factor receptor (Homo sapiens, UniProt P08581); assay: Inhibition of human c-MET at 10 uM using KKKSPGEYVNIEFG as substrate by [gamma-33P]-ATP assay relative to control
Sequence of Hepatocyte growth factor receptor (P08581 whole entry): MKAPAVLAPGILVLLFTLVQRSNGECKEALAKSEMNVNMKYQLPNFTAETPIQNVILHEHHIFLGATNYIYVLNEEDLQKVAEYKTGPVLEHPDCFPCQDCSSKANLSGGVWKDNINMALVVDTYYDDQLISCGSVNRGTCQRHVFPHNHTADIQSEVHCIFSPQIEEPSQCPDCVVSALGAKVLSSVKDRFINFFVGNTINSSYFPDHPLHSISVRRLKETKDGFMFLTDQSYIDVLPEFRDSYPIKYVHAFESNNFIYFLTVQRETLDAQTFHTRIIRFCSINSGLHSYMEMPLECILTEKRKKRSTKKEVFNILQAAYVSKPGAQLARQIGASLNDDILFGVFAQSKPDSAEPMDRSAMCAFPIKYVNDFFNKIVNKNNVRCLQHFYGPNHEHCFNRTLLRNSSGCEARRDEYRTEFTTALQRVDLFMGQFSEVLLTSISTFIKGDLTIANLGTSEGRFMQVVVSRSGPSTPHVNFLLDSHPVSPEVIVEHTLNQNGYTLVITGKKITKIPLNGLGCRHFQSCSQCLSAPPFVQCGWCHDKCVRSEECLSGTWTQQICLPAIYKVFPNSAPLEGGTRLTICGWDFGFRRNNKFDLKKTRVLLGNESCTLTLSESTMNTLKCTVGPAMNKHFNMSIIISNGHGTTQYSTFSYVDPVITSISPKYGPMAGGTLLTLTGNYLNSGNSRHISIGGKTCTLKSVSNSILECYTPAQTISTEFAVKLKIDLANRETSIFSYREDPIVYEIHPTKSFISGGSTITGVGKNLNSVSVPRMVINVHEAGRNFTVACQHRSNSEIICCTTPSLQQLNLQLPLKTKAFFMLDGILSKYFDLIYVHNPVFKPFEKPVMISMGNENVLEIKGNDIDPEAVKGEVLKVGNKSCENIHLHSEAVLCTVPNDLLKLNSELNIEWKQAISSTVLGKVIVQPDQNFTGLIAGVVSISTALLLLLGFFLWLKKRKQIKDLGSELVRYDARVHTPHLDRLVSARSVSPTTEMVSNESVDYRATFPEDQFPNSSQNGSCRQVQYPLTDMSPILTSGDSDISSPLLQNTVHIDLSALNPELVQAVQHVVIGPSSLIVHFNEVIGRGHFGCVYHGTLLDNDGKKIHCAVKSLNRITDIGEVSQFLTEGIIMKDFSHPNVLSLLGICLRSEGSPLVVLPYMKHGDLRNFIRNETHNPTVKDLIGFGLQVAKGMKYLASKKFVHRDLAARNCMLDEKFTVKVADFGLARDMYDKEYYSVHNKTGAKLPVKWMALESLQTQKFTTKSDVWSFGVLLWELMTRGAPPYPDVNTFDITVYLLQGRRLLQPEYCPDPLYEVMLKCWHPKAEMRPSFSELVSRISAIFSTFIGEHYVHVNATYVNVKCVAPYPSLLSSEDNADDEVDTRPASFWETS

[26] = molecular target: RAF proto-oncogene serine/threonine-protein kinase (Homo sapiens, UniProt P04049); assay: Inhibition of human RAF1 at 10 uM using MEK1 (K97R) as substrate by [gamma-33P]-ATP assay relative to control
Sequence of RAF proto-oncogene serine/threonine-protein kinase (P04049 whole entry): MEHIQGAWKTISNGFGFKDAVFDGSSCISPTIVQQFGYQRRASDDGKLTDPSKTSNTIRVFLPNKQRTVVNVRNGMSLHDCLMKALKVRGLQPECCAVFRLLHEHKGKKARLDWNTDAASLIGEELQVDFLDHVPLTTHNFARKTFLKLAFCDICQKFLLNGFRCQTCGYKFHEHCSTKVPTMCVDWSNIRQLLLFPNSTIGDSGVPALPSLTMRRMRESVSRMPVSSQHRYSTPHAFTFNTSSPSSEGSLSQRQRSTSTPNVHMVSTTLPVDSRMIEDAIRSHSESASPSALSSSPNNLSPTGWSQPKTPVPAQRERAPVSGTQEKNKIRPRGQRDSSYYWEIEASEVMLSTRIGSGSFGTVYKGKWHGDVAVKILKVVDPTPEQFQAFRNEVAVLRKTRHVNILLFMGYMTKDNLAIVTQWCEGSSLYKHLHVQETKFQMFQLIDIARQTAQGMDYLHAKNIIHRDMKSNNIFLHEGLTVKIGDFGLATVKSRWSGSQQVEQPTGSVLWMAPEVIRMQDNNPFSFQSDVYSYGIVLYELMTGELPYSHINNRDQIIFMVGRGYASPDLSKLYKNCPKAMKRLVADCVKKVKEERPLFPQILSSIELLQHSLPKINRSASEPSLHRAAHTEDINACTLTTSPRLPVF

[27] = molecular target: DNA-dependent protein kinase catalytic subunit (Homo sapiens) (UniProt P78527); assay: Inhibition of human DNAPK at 10 uM using EPPLSQEAFADLWKK as substrate by […]-ATP assay relative to control
[28] = molecular target: Epidermal growth factor receptor (Homo sapiens) (UniProt P00533); assay: Inhibition of human EGFR at 10 uM using poly[Glu:Tyr] (4:1) as substrate by [gamma-33P]-ATP assay relative to control
[29] = molecular target: Aurora kinase A (Homo sapiens) (UniProt O14965); assay: Inhibition of human Aurora A at 10 uM using [H-LRRASLG] as substrate by [gamma-33P]-ATP assay relative to control
[30] = molecular target: ALK tyrosine kinase receptor (Homo sapiens) (UniProt Q9UM73); assay: Inhibition of human ALK at 10 uM using poly[Glu:Tyr] (4:1) as substrate by [gamma-33P]-ATP assay relative to control
[31] = molecular target: Serine/threonine-protein kinase A-Raf (Homo sapiens) (UniProt P10398); assay: Inhibition of human ARAF at 10 uM using MEK1 as substrate by [gamma-33P]-ATP assay relative to control
[32] = molecular target: RAC-alpha serine/threonine-protein kinase (Homo sapiens) (UniProt P31749); assay: Inhibition of human AKT1 at 10 uM using KGSGSGRPRTSSFAEG as substrate by [gamma-33P]-ATP assay relative to control
Sequence of RAC-alpha serine/threonine-protein kinase (Homo sapiens) (P31749 whole entry): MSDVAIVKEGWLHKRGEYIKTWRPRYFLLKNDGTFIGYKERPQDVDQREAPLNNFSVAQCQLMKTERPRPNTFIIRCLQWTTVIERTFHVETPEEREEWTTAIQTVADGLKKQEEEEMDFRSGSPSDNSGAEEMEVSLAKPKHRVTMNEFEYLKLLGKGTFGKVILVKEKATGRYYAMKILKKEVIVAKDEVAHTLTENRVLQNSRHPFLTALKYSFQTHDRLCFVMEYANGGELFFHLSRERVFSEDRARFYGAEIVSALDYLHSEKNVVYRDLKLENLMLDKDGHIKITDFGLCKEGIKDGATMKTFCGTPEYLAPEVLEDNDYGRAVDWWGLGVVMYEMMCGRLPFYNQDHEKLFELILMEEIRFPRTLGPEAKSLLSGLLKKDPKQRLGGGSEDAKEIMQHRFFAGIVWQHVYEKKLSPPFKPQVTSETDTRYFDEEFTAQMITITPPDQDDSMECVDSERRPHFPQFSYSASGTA

[33] = molecular target: Tyrosine-protein kinase ABL1 (Homo sapiens) (UniProt P00519); assay: Inhibition of human ABL1 at 10 uM using EAIYAAPFAKKK as substrate by [gamma-33P]-ATP assay relative to control
Rattus norvegicus = assay: Antiinflammatory activity in Sprague-Dawley rat assessed as inhibition of carrageenan-induced paw edema at 50 mg/kg, ip administered 1 hr before carrageenan stimulation and measured after 3 hrs relative to control; format: functional
THP-1 = assay: Inhibition of LPS-induced TNFalpha production in human THP1 cells incubated for 1 hr followed by LPS stimulation and measured after 4 hrs by TR-FRET method; format: functional, cell-based

T1 sequence (Q16539 whole entry): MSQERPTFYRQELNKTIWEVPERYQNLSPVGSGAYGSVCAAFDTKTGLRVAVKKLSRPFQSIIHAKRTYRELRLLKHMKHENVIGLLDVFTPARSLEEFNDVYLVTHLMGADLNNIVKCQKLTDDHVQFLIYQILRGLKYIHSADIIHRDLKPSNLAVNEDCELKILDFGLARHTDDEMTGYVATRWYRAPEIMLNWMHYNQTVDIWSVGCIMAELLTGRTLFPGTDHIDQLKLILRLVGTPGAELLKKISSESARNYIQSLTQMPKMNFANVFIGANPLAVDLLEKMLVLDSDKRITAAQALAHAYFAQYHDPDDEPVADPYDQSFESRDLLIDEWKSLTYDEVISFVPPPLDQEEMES

COc1ccc(-c2nn(-c3cccc(NC(=O)Nc4ccccc4)c3)cc2-c2ccncc2)cc1Cl
IC50 [1]: 4 µM

O=C(Nc1ccccc1)Nc1cccc(-n2cc(-c3ccncc3)c(-c3ccc(O)c(Cl)c3)n2)c1
IC50 [1]: > 30 µM

O=C(Nc1cccc(-n2cc(-c3ccncc3)c(-c3ccc(O)c(Cl)c3)n2)c1)c1ccc(Cl)c(Cl)c1
IC50 [1]: 14.3 µM

COc1ccc(-c2nn(-c3cccc(NC(=O)Nc4cccc(C(F)(F)F)c4)c3)cc2-c2ccncc2)cc1Cl
IC50 [1]: 12.2 µM

O=C(Nc1cccc(-n2cc(-c3ccncc3)c(-c3ccc(O)c(Cl)c3)n2)c1)c1cccc(C(F)(F)F)c1
IC50 [1]: > 30 µM

CCN(CC)CCOC(=O)c1ccc(N)cc1 [PROCAINE]
remaining at 0.5 h, 10 µM [2]: 1.2%
remaining at 2 h, 10 µM [3]: 0.2%
remaining at 0.5 h, 10 µM [4]: 89.9%
remaining at 2 h, 10 µM [5]: 42.7%

COc1cccc(-c2nn(-c3ccccc3)cc2-c2ccncc2)c1
IC50 [6]: 0.515 µM

O=C(Nc1cccc(-n2cc(-c3ccncc3)c(-c3ccc(O)c(Cl)c3)n2)c1)c1cc(C(F)(F)F)cc(C(F)(F)F)c1
IC50 [1]: > 30 µM

O=C(Nc1cccc(-n2cc(-c3ccncc3)c(-c3ccc(O)c(Cl)c3)n2)c1)Nc1cccc(C(F)(F)F)c1
IC50 [1]: > 30 µM

COc1ccc([C@@H]2Sc3ccccc3N(CCN(C)C)C(=O)[C@@H]2OC(C)=O)cc1 [DILTIAZEM]
remaining at 0.5 h, 10 µM [2]: 91.5%
remaining at 2 h, 10 µM [3]: 89.3%
remaining at 0.5 h, 10 µM [4]: 86.3%
remaining at 2 h, 10 µM [5]: 45.4%

COc1ccc(-c2nn(-c3cccc(NC(=O)Nc4ccc(Cl)c(Cl)c4)c3)cc2-c2ccncc2)cc1Cl
IC50 [1]: 2.83 µM

COc1ccc(-c2nn(-c3cccc(NC(=O)c4cc(C(F)(F)F)cc(C(F)(F)F)c4)c3)cc2-c2ccncc2)cc1Cl
IC50 [1]: 2.33 µM

O=C(Nc1cccc(-n2cc(-c3ccncc3)c(-c3ccc(O)c(Cl)c3)n2)c1)Nc1ccc(Cl)c(Cl)c1
IC50 [1]: 14.4 µM

O=C(Nc1cccc(-n2cc(-c3ccncc3)c(-c3ccc(O)c(Cl)c3)n2)c1)c1ccc(N2CCOCC2)c(C(F)(F)F)c1
IC50 [1]: > 30 µM

COc1ccc(-c2nn(-c3cccc(NC(=O)Nc4cc(C(F)(F)F)cc(C(F)(F)F)c4)c3)cc2-c2ccncc2)cc1Cl
EC50 [7]: 1.94 µM
IC50 [1]: 0.307 µM
inhibition [8]: 8.99%
inhibition [9]: -7.69%
inhibition [10]: 22.2%
inhibition [11]: 0.29%
inhibition [12]: 20.1%
inhibition [13]: -8.43%
inhibition [14]: 4.66%
inhibition [15]: -6.35%
inhibition [16]: 5.95%
inhibition [17]: 9%
inhibition [18]: -4.38%
inhibition [19]: 86.4%
inhibition [20]: 2.65%
inhibition [21]: -4.12%
inhibition [22]: 8.96%
inhibition [23]: 35.8%
inhibition [24]: 2.7%
inhibition [25]: 48.5%
inhibition [26]: 40.4%
inhibition [27]: 0.81%
inhibition [28]: 2.48%
inhibition [29]: -3.14%
inhibition [30]: -3.13%
inhibition [31]: 57%
inhibition [32]: 4.08%
inhibition [33]: -7.26%

O=C(Nc1cccc(-n2cc(-c3ccncc3)c(-c3ccc(O)c(Cl)c3)n2)c1)Nc1ccc(Cl)c(C(F)(F)F)c1
IC50 [1]: > 30 µM

COc1ccc(-c2nn(-c3cccc(NC(=O)c4ccc(N5CCOCC5)c(C(F)(F)F)c4)c3)cc2-c2ccncc2)cc1Cl
IC50 [1]: 6.07 µM

O=C(O)Cc1ccccc1Nc1c(Cl)cccc1Cl [DICLOFENAC]
inhibition in vivo at 50 mg/kg (Rattus norvegicus): 71.3%

C[S+]([O-])c1ccc(-c2nc(-c3ccc(F)cc3)c(-c3ccncc3)[nH]2)cc1 (stereo not given) [SB-203580]
IC50 (THP-1): 0.02 µM

COc1ccc(-c2nn(-c3cccc(NC(=O)Nc4ccc(Cl)c(C(F)(F)F)c4)c3)cc2-c2ccncc2)cc1Cl
IC50 [1]: 8.54 µM

COc1ccc(-c2nn(-c3cccc(NC(=O)c4ccc(Cl)c(Cl)c4)c3)cc2-c2ccncc2)cc1Cl
IC50 [1]: 1.29 µM

O=C(Nc1cccc(-n2cc(-c3ccncc3)c(-c3ccc(O)c(Cl)c3)n2)c1)Nc1cc(C(F)(F)F)cc(C(F)(F)F)c1
IC50 [1]: > 30 µM

— ChEMBL document CHEMBL4311959, “Discovery of a potent p38α/MAPK14 kinase inhibitor: Synthesis, in vitro/in vivo biological evaluation, and docking studies” (Eur J Med Chem, 2019)
